Results: patent US12071436B2, “Anti-parasitic compounds and uses thereof” (Memorial Sloan-Kettering Cancer Center, priority 2016, dated 2024)
Read-outs that look alike come from different tables or passages of the source.

Columns and labels:
[1] = tested on: Trypanosoma cruzi parasites; assay: Trypanosoma cruzi in vitro IC50 (structure-activity analyses); assay type: cell-based; settings: infection with Trypanosoma cruzi parasites for 72 hours and treatment with the compound for 72 hours
Procedure: Select compounds described herein were evaluated for structure-activity analyses in vitro.

Cytotoxicity (Table 1) = assay type: cell-based
Plasma stability = assay type: in vitro ADME; settings: C57BL/6; 10 μM in undiluted mouse plasma, 37° C., out to four hours; read-out: plasma stability (t1/2, mouse)
Procedure: To evaluate the plasma stability of selected compounds, 10 μM of each selected compound was incubated with undiluted plasma. Plasma was freshly obtained from C57BBl\6 mice drawn in the vivarium and used immediately. Plasma was brought to 37° C. within a 96-well plate and then the compound is introduced via a DMSO stock solution. The sample was continually shaken at 37° C. and aliquots are removed at multiple time points out to four hours. Aliquots were added to acetonitrile (5× v:v) to stop any enzymatic activity and held on ice. At the end of the assay, the samples were centrifuged through a Millipore Multiscreen Solvinter 0.45 micron low binding PTFE hydrophilic filter plate and analyzed by LC-MS/MS. Data was log transformed and represented as half-life.

[2] = Hepatic microsomal stability, 1 mg/mL hepatic microsomes; assay type: in vitro ADME; settings: C57BL/6, mouse, liver microsomes, pH 7.4, 1 μM compound, NADPH, read-out: microsomal stability (t1/2, mouse): 1 mg/mL hepatic microsomes
Procedure: To evaluate the hepatic microsomal stability of selected compounds, 1 μM of each selected compound was incubated with 1 mg/mL hepatic microsomes in 100 mM KPi, pH 7.4. The microsomes were obtained from C57BL/6 mice. The reaction was initiated by adding NADPH (1 mM final concentration). Aliquots were removed at 0, 5, 10, 20, 40, and 60 minutes and added to acetonitrile (5× v:v) to stop the reaction and precipitate the protein. NADPH dependence of the reaction is evaluated with —NADPH samples. At the end of the assay, the samples were centrifuged through a Millipore Multiscreen Solvinter 0.45 micron low binding PTFE hydrophilic filter plate and analyzed by LC-MS/MS. Data was log transformed and represented as half-life.

[3] = Metabolic stability in mice liver microsomes (MLM), 0.25 mg/mL; assay type: in vitro ADME; settings: mouse, pH 7.4, 1 μM compound, 0.25 mg/mL microsomes, NADPH, read-out: microsomal stability (t1/2, mouse): 0.25 mg/mL hepatic microsomes
Procedure: To evaluate the metabolic stability of compounds 21 and 37 in mice liver microsomes (MLM), a 1120 μL aliquot of potassium phosphate buffer (50 mM, pH 7.4) containing mice liver microsomes (0.357 mg/mL) was added to individual 2 mL tubes (final concentration 0.25 mg/mL). Imipramine in MLM was run as positive controls. Test compounds (compound 21 or compound 37) and positive control compounds (1 mM DMSO stocks) were directly spiked into respective tubes to prepare a concentration of 1.428 μM (final concentration 1 μM). From the above mix, 70 μL was added to individual wells of 96 well reaction plates and pre-incubated in a 37° C. water bath for 5 min. All the reactions were initiated by adding 30 μL of 3.33 mM NADPH (final concentration 1 mM). Reactions without NADPH and heat inactivated microsomes minus NADPH (0 min and 60 min) were also incubated to rule out non-NADPH metabolism or chemical instability in the incubation buffer. All reactions were terminated using 100 μL of ice-cold acetonitrile containing internal standard (glipizide—2 μM) at 0, 5, 15 and 60 min. The plates were centrifuged at 4000 RPM for 15 min and 100 μL aliquots were submitted for analysis by LC-M/MS. Samples were monitored for parent compound disappearance in Multiple reaction monitoring (MRM) mode using LC-MS/MS.

[4] = Plasma protein binding by equilibrium dialysis; assay type: in vitro ADME; settings: mouse, 37° C.
Procedure: To evaluate the plasma protein binding of selected compounds, equilibrium dialysis was used. All samples of the selected compounds were tested in triplicate using the RED Rapid Equilibrium Dialysis Device (Thermo Scientific). The initial drug concentration in the plasma chamber was 5 μM and phosphate buffered saline was added to the receiver chamber. The plate was covered and allowed to shake in a 37° C. incubator for 6 hours. 25 μl was sampled from the plasma and PBS chambers which were then diluted with either blank PBS or plasma to achieve a 1:1 ratio or plasma:PBS for all samples. The concentration of drug in the plasma and PBS chambers were determined by LC-MS/MS. The fraction bound was calculated as ([plasma]−[PBS])/[plasma].

HepG2 = assay: Cytotoxicity screening in HepG2 (CellTiter Glo, fluorescence microscopy); assay type: cell-based; settings: Homo sapiens, 48 hours
Procedure: To evaluate the cytotoxicity of selected compounds, cell viability assays (CellTiter Glo) were conducted. Each compound (compound 21 or compound 37) was plated in triplicate starting at their respective stock concentration. They were serially diluted column-wise for ten 3× dilutions using DMSO as the diluent. Staurosporine was used as positive control for DRC (dose response curve), and was plated starting at 1.25 mM. This plate was used as a source plate to make the assay plates by transferring 0.1 μl into 25 μl assay volume to reach the right working concentration for each compound. HepG2 and MRC5 were plated at a density of 1500 cells/25 μl in well in the assay plate and allowed to settle overnight. 0.1 μL of compounds was then transferred from the source plate, into the cell assay plates. The cells were left to incubate with the compounds for 48 hours, after which, 25 μL of Promega Cell Titer-Glo was added to each well, and allowed to incubate at room temperature with shaking for 20 minutes. RLU's (Relative Light Units) for each well were then recorded on a BioTek Synergy NEO. Fluorescence microscopy was also used to evaluate the cytotoxicity of selected compounds. Cells were plated at a density of 1500 cells/25 μl in well in a 384 wells plate the day before incubation with the drugs. The following day, 0.1 μl of the source plate are added to the assay plate. Then, 25 μl of a fluorophores mixture containing Hoechst 33342, Syto17 diluted in Eagle's Minimum Essential Medium (EMEM) was added to each well. Plates are read after 48 hours of incubation in the ImageXpress instrument (Molecular Devices) using the appropriate filters.

[5] = read-out: HepG2 IC50, Cell Count
[6] = read-out: HepG2 IC50, Cellular ATP
[7] = read-out: HepG2 IC50, Membrane Integrity

IC50 [1] [µM] | half-life at 10 μM (Plasma stability) [min] | half-life at 1 μM [2] [min] | half-life at 1 μM [3] [min] | fraction unbound at 6 h, 5 μM [4] | SMILES | Cytotoxicity (Cytotoxicity (Table 1)) [µM] | IC50 (HepG2; [5]) [µM] | IC50 (HepG2; [6]) [µM] | IC50 (HepG2; [7]) [µM]
0.054 | > 240 | 3.9 | 46 | 0.045 | CN(C)CC#Cc1cccc(-c2nc(C(=O)NCc3ccc4c(c3)OCO4)cc3c2[C@@H](CCO)N([S@+]([O-])C(C)(C)C)C3)c1 [compound 21, (R)-N-(Benzo[d][1,3]dioxol-5-ylmethyl)-2-((R)-tert-butylsulfinyl)-4-(3-(3-(dimethyl-amino)prop-1-yn-1-yl)phenyl)-3-(2-hydroxyethyl)-2,3-dihydro-1H-pyrrolo[3,4-c]pyridine-6-carboxamide] | >10 | 51.3 | 52.5 | 62.1
0.048 | > 240 | 1.3 | 13 | 0.081 | CN(C)CC#Cc1cccc(-c2nc(C(=O)N[C@@H]3CCN(Cc4ccccc4)C3)cc3c2[C@@H](CCO)N([S@+]([O-])C(C)(C)C)C3)c1 [compound 37, (R)-N-((R)-1-Benzylpyrrolidin-3-yl)-2-((R)-tert-butylsulfinyl)-4-(3-(3-(dimethylamino)prop-1-yn-1-yl)phenyl)-3-(2-hydroxyethyl)-2,3-dihydro-1H-pyrrolo[3,4-c]pyridine-6-carboxamide] | >10 | 56.2 | 54.2 | 90.6
